Reference: US10405547B2, “Substituted cyclic amides as herbicides” (FMC Corporation, priority 2015, dated 2019)

How the values were obtained:
Assay type in all cases: in vivo
[1] = tested on: barnyardgrass (Echinochloa crus-galli); assay: Test A postemergence, barnyardgrass; details: visual injury, 0 to 100 scale (0 no effect, 100 complete control), approximately 10 days
Excerpt: (§1) Test A Seeds of plant species selected from barnyardgrass (Echinochloa crus-galli), kochia (Kochia scoparia), ragweed (common ragweed, Ambrosia elatior), ryegrass, Italian (Lolium multiflorum), foxtail, giant (Setaria faberii), and pigweed (Amaranthus retroflexus), were planted into a blend of loam soil and sand and treated preemergence with a directed soil spray using test chemicals formulated in a non-phytotoxic solvent mixture which included a surfactant.
(§2) At the same time, plants selected from these weed species and also blackgrass (Alopecurus myosuroides), galium (catchweed bedstraw, Galium aparine), wheat (Triticum aestivum), and corn (Zea mays) were planted in pots containing the same blend of loam soil and sand and treated with postemergence applications of test chemicals formulated in the same manner. Plants ranged in height from 2 to 10 cm and were in the one- to two-leaf stage for the postemergence treatment. Treated plants and untreated controls were maintained in a greenhouse for approximately 10 days, after which time all treated plants were compared to untreated controls and visually evaluated for injury. Plant response ratings, summarized in Table A, are based on a 0 to 100 scale where 0 is no effect and 100 is complete control. A dash (-) response means no test result.

[2] = tested on: ryegrass, Italian (Lolium multiflorum); assay: Test A preemergence, Italian ryegrass; details: 0 to 100 scale (0 no effect, 100 complete control)
Excerpt: as §1, §2

[3] = tested on: kochia (Kochia scoparia); assay: Test A preemergence, kochia; details: 0 to 100 scale (0 no effect, 100 complete control)
Excerpt: as §1, §2

[4] = tested on: corn (Zea mays); assay: Test A postemergence, corn; details: visual injury, 0 to 100 scale (0 no effect, 100 complete control), approximately 10 days
Excerpt: as §1, §2

[5] = tested on: wheat (Triticum aestivum); assay: Test A postemergence, wheat; details: visual injury, 0 to 100 scale (0 no effect, 100 complete control), approximately 10 days
Excerpt: as §1, §2

[6] = tested on: barnyardgrass (Echinochloa crus-galli); assay: Test A preemergence, barnyardgrass; details: 0 to 100 scale (0 no effect, 100 complete control)
Excerpt: as §1, §2

[7] = tested on: kochia (Kochia scoparia); assay: Test A postemergence, kochia; details: visual injury, 0 to 100 scale (0 no effect, 100 complete control), approximately 10 days
Excerpt: as §1, §2

[8] = tested on: ryegrass, Italian (Lolium multiflorum); assay: Test A postemergence, Italian ryegrass; details: visual injury, 0 to 100 scale (0 no effect, 100 complete control), approximately 10 days
Excerpt: as §1, §2

[9] = tested on: galium (catchweed bedstraw, Galium aparine); assay: Test A postemergence, galium; details: visual injury, 0 to 100 scale (0 no effect, 100 complete control), approximately 10 days
Excerpt: as §1, §2

[10] = tested on: foxtail, giant (Setaria faberii); assay: Test A preemergence, giant foxtail; details: 0 to 100 scale (0 no effect, 100 complete control)
Excerpt: as §1, §2

[11] = tested on: blackgrass (Alopecurus myosuroides); assay: Test A postemergence, blackgrass; details: visual injury, 0 to 100 scale (0 no effect, 100 complete control), approximately 10 days
Excerpt: as §1, §2

[12] = tested on: ragweed (common ragweed, Ambrosia elatior); assay: Test A postemergence, ragweed; details: visual injury, 0 to 100 scale (0 no effect, 100 complete control), approximately 10 days
Excerpt: as §1, §2

[13] = tested on: ragweed (common ragweed, Ambrosia elatior); assay: Test A preemergence, ragweed; details: 0 to 100 scale (0 no effect, 100 complete control)
Excerpt: as §1, §2

[14] = tested on: pigweed (Amaranthus retroflexus); assay: Test A postemergence, pigweed; details: visual injury, 0 to 100 scale (0 no effect, 100 complete control), approximately 10 days
Excerpt: as §1, §2

[15] = tested on: foxtail, giant (Setaria faberii); assay: Test A postemergence, giant foxtail; details: visual injury, 0 to 100 scale (0 no effect, 100 complete control), approximately 10 days
Excerpt: as §1, §2

[16] = tested on: pigweed (Amaranthus retroflexus); assay: Test A preemergence, pigweed; details: 0 to 100 scale (0 no effect, 100 complete control)
Excerpt: as §1, §2

SMILES | Plant response rating, Barnyardgrass ([1]; 125 g ai/ha) | Plant response rating, Barnyardgrass ([1]; 500 g ai/ha) | Plant response rating, Ryegrass, Italian ([2]; 125 g ai/ha) | Plant response rating, Ryegrass, Italian ([2]; 500 g ai/ha) | Plant response rating, Kochia ([3]; 125 g ai/ha) | Plant response rating, Kochia ([3]; 500 g ai/ha) | Plant response rating, Corn ([4]; 125 g ai/ha) | Plant response rating, Corn ([4]; 500 g ai/ha) | Plant response rating, Wheat ([5]; 125 g ai/ha) | Plant response rating, Wheat ([5]; 500 g ai/ha) | Plant response rating, Barnyardgrass ([6]; 125 g ai/ha) | Plant response rating, Barnyardgrass ([6]; 500 g ai/ha) | Plant response rating, Kochia ([7]; 125 g ai/ha) | Plant response rating, Kochia ([7]; 500 g ai/ha) | Plant response rating, Ryegrass, Italian ([8]; 125 g ai/ha) | Plant response rating, Ryegrass, Italian ([8]; 500 g ai/ha) | Plant response rating, Galium ([9]; 125 g ai/ha) | Plant response rating, Galium ([9]; 500 g ai/ha) | Plant response rating, Foxtail, Giant ([10]; 125 g ai/ha) | Plant response rating, Foxtail, Giant ([10]; 500 g ai/ha) | also measured
O=C1NCC(c2cccc(COc3ccccc3)c2)C1C(=O)Nc1cccc(F)c1F (stereo not shown) [Compound 21] | 20 | 20 | 0 | 0 | 0 | 20 | 0 | 0 | 0 | 0 | 0 | 40 | 0 | 0 | 0 | 0 | 0 | 0 | 20 | 60 | Plant response rating, Blackgrass ([11]; 125 g ai/ha): 0; Plant response rating, Blackgrass ([11]; 500 g ai/ha): 0; Plant response rating, Ragweed ([12]; 125 g ai/ha): 0; Plant response rating, Ragweed ([12]; 500 g ai/ha): 0; Plant response rating, Ragweed ([13]; 125 g ai/ha): 0; Plant response rating, Ragweed ([13]; 500 g ai/ha): 0; Plant response rating, Pigweed ([14]; 125 g ai/ha): 0; Plant response rating, Pigweed ([14]; 500 g ai/ha): 0; Plant response rating, Foxtail, Giant ([15]; 125 g ai/ha): 30; Plant response rating, Foxtail, Giant ([15]; 500 g ai/ha): 30; Plant response rating, Pigweed ([16]; 125 g ai/ha): 0; Plant response rating, Pigweed ([16]; 500 g ai/ha): 0
O=C1NCC(c2cccc(Oc3ncc(Cl)cn3)c2)C1C(=O)Nc1ccccc1F (stereo not shown) [Compound 55] | 30 | 80 | 0 | 20 | 0 | 20 | 0 | 0 | 0 | 0 | 0 | 80 | 0 | 0 | 0 | 30 | 0 | 30 | 80 | 90 | Plant response rating, Blackgrass ([11]; 125 g ai/ha): 0; Plant response rating, Blackgrass ([11]; 500 g ai/ha): 0; Plant response rating, Ragweed ([12]; 125 g ai/ha): 0; Plant response rating, Ragweed ([12]; 500 g ai/ha): 0; Plant response rating, Ragweed ([13]; 125 g ai/ha): 0; Plant response rating, Ragweed ([13]; 500 g ai/ha): 0; Plant response rating, Pigweed ([14]; 125 g ai/ha): 0; Plant response rating, Pigweed ([14]; 500 g ai/ha): 0; Plant response rating, Foxtail, Giant ([15]; 125 g ai/ha): 70; Plant response rating, Foxtail, Giant ([15]; 500 g ai/ha): 80; Plant response rating, Pigweed ([16]; 125 g ai/ha): 0; Plant response rating, Pigweed ([16]; 500 g ai/ha): 0
